# Patent publication US8742100B2, “Small molecule inhibitors of isoprenylcysteine carboxyl methyltransferase with potential anticancer activity” (National University of Singapore, priority 2009, dated 2014)
# Read-outs that look alike come from different tables or passages of the source.
# How the values were obtained:
# [1] = Binding to fetal bovine serum (plasma protein binding), centrifugal filter device, HPLC; type: in vitro ADME; details: bovine, 5% w/v fetal bovine serum in phosphate buffered saline; for fraction unbound at 30 min, 1 µM / fraction unbound at 30 min, 4 µM / fraction unbound at 30 min, 10 µM / fraction unbound at 30 min, 25 µM: 5% fetal bovine serum in PBS
# Method: (§1) Semi-automatic high-throughput determination of plasma protein binding using a 96-well plate filtrate assembly and fast liquid chromatography—tandem mass spectrometry. […] Stock solutions were prepared in DMSO at 100× higher concentrations. A 5% w/v solution of fetal bovine serum in phosphate buffered saline was prepared. An aliquot (10 μL of the stock solution was added to 990 μL of the PBS solution containing 5% fetal bovine serum in a glass tube which was then incubated in a shaking water bath at 37° C. for 30 min. 500 μL of the solution was then transferred to a centrifugal filter device (Amicon Ultra 0.5 ml # UFC503096) and centrifuged at 14 000g, 15 min. After this time, the filter units were removed and placed (upside down) in a collecting tube containing 477 μL, of PBS. The latter was centrifuged at 2000g, 2 min to obtain the retentate. […] J.
# fetal bovine serum = test: as above; type: in vitro ADME; details: fetal bovine serum
# Method: as §1
# [2] = read-out: % Bound Average (converted)
# [3] = read-out: % Bound Run 1 (converted)
# [4] = read-out: % Bound Run 2 (converted)
# [5] = read-out: % Bound Run 3 (converted)
compound,measurement,setting,value
"CCN(CC)Cc1cn(CC=C(C)C)c2ccc(-c3cccc(C)c3)cc12 [Compound J38G, N-ethyl-N-((1-(3-methylbut-2-enyl)-5-m-tolyl-1H-indol-3-yl)methyl)ethanamine]","fraction unbound at 30 min, 1 µM",[1]; [2],0.776
same,"fraction unbound at 30 min, 1 µM",[1]; [3],0.747
same,"fraction unbound at 30 min, 1 µM",[1]; [4],0.845
same,"fraction unbound at 30 min, 1 µM",[1]; [5],0.737
same,"fraction unbound at 30 min, 4 µM",[1]; [2],0.638
same,"fraction unbound at 30 min, 4 µM",[1]; [3],0.616
same,"fraction unbound at 30 min, 4 µM",[1]; [4],0.676
same,"fraction unbound at 30 min, 4 µM",[1]; [5],0.621
same,"fraction unbound at 30 min, 10 µM",[1]; [2],0.765
same,"fraction unbound at 30 min, 10 µM",[1]; [3],0.697
same,"fraction unbound at 30 min, 10 µM",[1]; [4],0.783
same,"fraction unbound at 30 min, 10 µM",[1]; [5],0.815
same,"fraction unbound at 30 min, 25 µM",[1]; [2],0.737
same,"fraction unbound at 30 min, 25 µM",[1]; [3],0.725
same,"fraction unbound at 30 min, 25 µM",[1]; [4],0.792
same,"fraction unbound at 30 min, 25 µM",[1]; [5],0.693
same,fraction unbound at 30 min,"[1]; all conc (1, 4, 10, 25 uM), read-out: % Bound Average, all conc (converted)",0.729
same,binding capacity compared with cysmethynil,fetal bovine serum,lower binding capacities than cysmethynil
